Target: T1, Der p1 (Dermatophagoides pteronyssinus, UniProt P08176)
T1 construct: Allergen stock solutions were derived from the extraction of the rearing medium of dust mites Dermatophagoides pteronyssinus; from tissue; host or cells: rearing medium of dust mites Dermatophagoides pteronyssinus (crude extract)
T1 sequence (P08176 99-320): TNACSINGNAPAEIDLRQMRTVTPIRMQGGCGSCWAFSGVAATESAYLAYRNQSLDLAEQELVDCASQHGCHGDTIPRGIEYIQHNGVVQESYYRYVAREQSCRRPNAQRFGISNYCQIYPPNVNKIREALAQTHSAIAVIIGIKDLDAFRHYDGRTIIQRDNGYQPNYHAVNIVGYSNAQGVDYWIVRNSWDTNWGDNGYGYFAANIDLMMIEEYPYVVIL
Assay: Allergen denaturing efficacy on Der p1-treated tissue, ELISA
Assay type: biochemical
Details: for Efficacy (%) on Der p1: tissue treated at 100 ml/m^2
Procedure: Allergen stock solutions were derived from the extraction of the rearing medium of dust mites Dermatophagoides pteronyssinus or by the extraction of cat exposed tissues. Allergens were always stored or diluted in Phosphate Buffered Saline (PBS) of pH 7.4 containing NaCl 8 g/L, KH2PO4 0.2 g/L, Na2HPO4 1.15 g/L, KCl 0.2 g/L, Tween 20 0.5 ml/L.
A tissue (Triconet: 40% PP, 60% Viscose, 0.7 mm thickness, 70 g/m^2) was treated with known amount of antigen, allowed to dry overnight and then treated with the allergen denaturing composition at 100 ml/m^2. The next day, the tissue was extracted in 5 ml of PBS and the concentration of allergen was determined by ELISA. ELISA tests were carried out according to the instructions of the commercially available test kits with monoclonal antibodies (www.inbio.com).
Briefly, anti-Der p1 or anti-Fel d1 monoclonal antibodies are diluted 1/1000 in 50 mM carbonate-bicarbonate buffer, pH 9.6. and 100 μl is coated on a polystyrene microtiter well and allowed to incubate overnight at 4° C. Then, wells are washed 3 times with PBS containing 0.05% Tween 20, pH 7.4. (further called: wash step with PBS-T). After incubation with 100 μl 1% BSA in PBS-T for 30 minutes at room temperature, another wash step is executed. Then, 100 μl of diluted allergen standard or test samples is added to each well and incubated for 1 hour at room temperature. After a wash step, 100 μl per well of 1/1000 diluted biotinylated anti-Der p1 or anti-Fel d1 monoclonal antibody is added and incubated for 1 hour at room temperature. Then, another wash step is executed and 100 μl/well of a Streptavidin-Peroxidase (Sigma S5512, reconstituted in 1 ml distilled water) is added as a 1/1000 dilution in PBS-T and incubated for 30 minutes at room temperature. After a final wash step, 100 μl/well of 1 mM ABTS (2,2′-azino-bis(3-ethylbenzthiazoline-6-sulfonic acid)diammonium salt) in 70 mM citrate phosphate buffer, pH 4.2, containing 0.03% H2O2, is added. The assay was allowed to develop after dark green colouring of the highest concentration of the allergen standard. Optical density was read at 405 nm.
Standard allergen dilution curves were taken for calibration. The range in which allergens can be quantified is 0.2-20 ppb for Fel d1 and from 1-100 ppb for Der p1. Dilutions were made until the concentration was in the right order of magnitude to enable quantification and percent reduction by the allergen denaturing composition.
Possible synergy was investigated using Limpet's formula (Richter, D. L., Pestic. Sci. 1987, 19: 309-315): […]
where Ec is the expected additive response, or calculated activity, X is the observed percentage control when component A is applied alone and Y is the observed percentage control when component B is applied alone. Synergy was considered to occur when the observed effect, or measured activity, of a combination of both components was greater than the corresponding Ec value.

SMILES | Efficacy (%) on Der p1 (La^3+ 0.01% alone) [%] | Efficacy (%) on Der p1 (La^3+ 0.05% alone) [%] | Efficacy (%) on Der p1 (La^3+ 0.2% alone) [%] | Efficacy (%) on Der p1 (La^3+ 1.0% alone) [%] | Efficacy (%) on Der p1 (Ca^2+ 0.05% alone) [%] | Efficacy (%) on Der p1 (Ca^2+ 0.125% alone) [%] | Efficacy (%) on Der p1 (Ca^2+ 0.5% alone) [%] | Efficacy (%) Expected value (Ec) (Ca^2+ 1%, La^3+ 0%) [%] | Efficacy (%) Measured value (Ca^2+ 1%, La^3+ 0%) [%] | Efficacy (%) Synergy (measured minus expected) (Ca^2+ 1%, La^3+ 0%) [%] | Efficacy (%) on Der p1 (Ca^2+ 2.0% alone) [%]
[La+3] [La^3+] | 12 | 0 | 0 | 100 | – | – | – | – | – | – | –
[Ca+2] [Ca^2+] | – | – | – | – | 0 | 0 | 28 | 46 | 46 | 0 | 96
